Reference: article PMC5234776, “Study of the Antimicrobial Activity of Tilapia Piscidin 3 (TP3) and TP4 and Their Effects on Immune Functions in Hybrid Tilapia (Oreochromis spp.)” (PLoS ONE, 2017)
Converted amounts (≈) assume the structure as drawn. Read-outs that look alike come from different tables or passages of the source. Peptide text beside a SMILES is read from it.

Columns and labels:
V. vulnificus [1] = assay: microbe, parasite or virus in culture; type: cell-based, Vibrio vulnificus; conditions: for antimicrobial activity in the pH 2 solution: pH 2, in words
Procedure: (§1) To understand the effects of pH on TP3 or TP4, the reagents were dissolved in ddH2O, 1 M HCl or 1 M NaOH to obtain solutions with different pH values. For the temperature-dependent functional study, the TP3 or TP4 was added to a solution in a water bath (Basic life, model BL3002, Taiwan) and incubated for 60 minutes at different temperatures (40, 60, 80, or 100°C). To evaluate the effects of TP3 and TP4 on pepsin and trypsin function, each peptide was incubated for 10 or 30 minutes with different concentrations of pepsin or trypsin (0.1, 1, or 10 μg/ml), and we determined the MIC values after incubating these solutions with cells at 28°C for 720 minutes, according to a previously described MIC experimental protocol.

V. vulnificus [2] = assay: Tilapia survival, peptide injected after V. vulnificus infection (post-treatment); type: in vivo, tilapia (Oreochromis spp.); conditions: seven days
Excerpt: (§2) We obtained tilapia (Oreochromis spp.) from a commercial aquaculture company. The fish body lengths were 4.0±0.6 cm, and body weights were 3.1±0.3 g. The tilapia were maintained in a 2000 liter indoor aquarium at the Marine Research Station, Ilan, Taiwan. To study the efficacy with which TP3 and TP4 protect tilapia against V. vulnificus, we injected the bacteria into the abdominal cavities (peritoneum) of the tilapia using a syringe (29 Gx1/2, Terumo Medical, Elkton, MD, USA); control tilapia were injected with PBS-buffered saline. For the first trial in each group, we used 15 tilapia: (a) group 1 was injected with V. vulnificus (2×10^5 CFU/fish) only; (b) group 2 was injected with PBS only; and (c) group 3 was injected with bacterial cells (2×10^5 CFU/fish) combined with a mixture containing both TP3 and TP4 peptides (at 0.1, 1, 10, or 20 μg/fish) that had been incubated for 60 minutes at 28°C. Next, at 168 hours after the first injection, the tilapia that survived the first co-treatment were again injected with V. vulnificus (2×10^5 CFU/fish). For this second challenge, we chose tilapia with similar body weights and ages that had not been previously treated with V. vulnificus, TP3 or TP4 for the V. vulnificus-only group (control group), and we recorded the survival rate over seven days. For the third trial, each group contained 15 tilapia, each of which was injected with 20, 30, or 40 μg of TP3 or TP4 followed by V. vulnificus (2×10^5 CFU/fish) after 0.5, 1, or 2 hours. The survival rate was recorded after seven days. For the fourth trial, each group contained 15 tilapia, each of which was first injected with V. vulnificus (2×10^5 CFU/fish) and then with 20, 30, or 40 μg of TP3 or TP4 after 0.5, 1, or 2 hours; the survival rate was recorded over seven days. Each experimental group consisted of 15 fish per treatment and three replicates (triplicate groups of 15 fish per treatment). We performed multiple group comparisons by analysis of variance (ANOVA) using SPSS software, and pairwise comparisons of groups were performed using a t-test. Significant differences were indicated as *P<0.05 and **P<0.01.

V. vulnificus [3] = assay: Tilapia survival, peptide injected before V. vulnificus infection (pre-treatment); type: in vivo, tilapia (Oreochromis spp.); conditions: 7 days
Excerpt: as §2

V. vulnificus [4] = assay: microbe, parasite or virus in culture; type: cell-based, Vibrio vulnificus; conditions: peptide treated from room temperature to as high as 100°C; 16 hours of incubation
Procedure: as §1, with “[…],” for “and we determined the MIC values after incubating these solutions with cells at 28°C for 720 minutes,”

V. vulnificus [5] = assay: Membrane perturbation, NPN uptake; type: cell-based, Vibrio vulnificus; conditions: 1×10^6 CFU/ml, 30 minutes, 40 μmol/L NPN; kanamycin: slight increase only
Procedure: We used previously reported methods for the membrane perturbation assay. Briefly, a single colony of V. vulnificus was cultured in TSB medium for 480 minutes at 28°C, and the adjusted culture (1×10^6 CFU/ml) was aliquoted into different tubes with or without TP4 or TP3. After incubating the cells for 30 minutes, we added 40 μmol/L 1-N-phenylnaphthylamine (NPN) and continued to incubate the cells. Tubes containing PBS with NPN and bacterial cells with NPN served as controls. The NPN fluorescence intensity was detected using a fluorescence ELISA reader. All experiments were performed in triplicate, and the results are expressed as means with standard errors (SE).

V. vulnificus [6] = assay: microbe, parasite or virus in culture; type: cell-based, Vibrio vulnificus
Procedure: We determined the MICs of TP3, TP4, kanamycin, and ampicillin against V. vulnificus using a broth microdilution method in accordance with NCCLS guidelines. To measure the killing efficiencies of TP3 and TP4 against V. vulnificus, we prepared TP3 or TP4 solutions at MIC concentrations of 0.5×, 1×, and 2× and these solutions with equal volumes of V. vulnificus (1×10^6 CFU/ml) to each well of a 96-well plate. The plates were incubated at 28°C for 0, 60, 120, 180, 360, 540, 720, or 1440 minutes, and after the incubation period, 50 μL of each bacterial solution were plated on a TCBS plate to obtain viable cell counts. Broth grown in the absence of peptides was used as a negative control. The results were determined using triplicate independent experiments.
First, we determined the minimum MICs and minimum bactericidal concentrations (MBCs) of TP3 or TP4 against V. vulnificus.

V. vulnificus [7] = assay: Tilapia survival, co-treatment with V. vulnificus and peptide; type: in vivo, tilapia (Oreochromis spp.); conditions: abdominal cavity, seven days
Excerpt: as §2

[8] = peptide 20 μg/fish 0.5 hours after V. vulnificus
[9] = peptide 20 μg/fish 1 hour after V. vulnificus
[10] = peptide 20 μg/fish 2 hours after V. vulnificus
[11] = peptide 30 μg/fish 0.5 hours after V. vulnificus
[12] = peptide 30 μg/fish 1 hour after V. vulnificus
[13] = peptide 30 μg/fish 2 hours after V. vulnificus
[14] = peptide 40 μg/fish 0.5 hours after V. vulnificus
[15] = peptide 40 μg/fish 1 hour after V. vulnificus
[16] = peptide 40 μg/fish 2 hours after V. vulnificus
[17] = peptide 20 μg/fish 0.5 hours before V. vulnificus
[18] = peptide 20 μg/fish 1 hour before V. vulnificus
[19] = peptide 20 μg/fish 2 hours before V. vulnificus
[20] = peptide 30 μg/fish 0.5 hours before V. vulnificus
[21] = peptide 30 μg/fish 1 hour before V. vulnificus
[22] = peptide 30 μg/fish 2 hours before V. vulnificus
[23] = peptide 40 μg/fish 0.5 hours before V. vulnificus
[24] = peptide 40 μg/fish 1 hour before V. vulnificus
[25] = peptide 40 μg/fish 2 hours before V. vulnificus
[26] = co-injection of V. vulnificus and peptide 0.1 μg/fish
[27] = co-injection of V. vulnificus and peptide 1 μg/fish
[28] = co-injection of V. vulnificus and peptide 10 μg/fish
[29] = co-injection of V. vulnificus and peptide 20 μg/fish

| Compound | antimicrobial activity in the pH 2 solution (V. vulnificus [1]) | MBC (V. vulnificus [1]; pH 7) | survival rate (V. vulnificus [2]; [8]) | survival rate (V. vulnificus [2]; [9]) | survival rate (V. vulnificus [2]; [10]) | survival rate (V. vulnificus [2]; [11]) | survival rate (V. vulnificus [2]; [12]) | survival rate (V. vulnificus [2]; [13]) | survival rate (V. vulnificus [2]; [14]) | survival rate (V. vulnificus [2]; [15]) | survival rate (V. vulnificus [2]; [16]) | survival rate (V. vulnificus [3]; [17]) | survival rate (V. vulnificus [3]; [18]) | survival rate (V. vulnificus [3]; [19]) | survival rate (V. vulnificus [3]; [20]) | survival rate (V. vulnificus [3]; [21]) | survival rate (V. vulnificus [3]; [22]) | survival rate (V. vulnificus [3]; [23]) | survival rate (V. vulnificus [3]; [24]) | survival rate (V. vulnificus [3]; [25]) | also measured |
| --- | --- | --- | --- | --- | --- | --- | --- | --- | --- | --- | --- | --- | --- | --- | --- | --- | --- | --- | --- | --- | --- |
| CC[C@H](C)[C@H](NC(=O)[C@H](CC(C)C)NC(=O)[C@H](CO)NC(=O)[C@H](Cc1c[nH]cn1)NC(=O)[C@@H](NC(=O)[C@H](Cc1c[nH]cn1)NC(=O)[C@H](CCCCN)NC(=O)CNC(=O)[C@@H](NC(=O)[C@H](CO)NC(=O)[C@H](Cc1ccccc1)NC(=O)[C@H](CC(C)C)NC(=O)CNC(=O)CNC(=O)[C@@H](NC(=O)[C@@H](NC(=O)[C@H](Cc1c[nH]cn1)NC(=O)[C@H](Cc1c[nH]cn1)NC(=O)[C@@H](NC(=O)[C@@H](N)Cc1ccccc1)[C@@H](C)CC)[C@@H](C)CC)[C@@H](C)CC)C(C)C)[C@@H](C)CC)C(=O)N[C@@H](Cc1c[nH]cn1)C(=O)NCC(=O)N[C@@H](Cc1c[nH]cn1)C(=O)O [TP3, tilapia piscidin 3] (H-FIHHIIGGLFSVGKHIHSLIHGH-OH) | Neither the antibiotics nor TP3 and TP4 showed any antimicrobial activity | 62.5 µg/mL (≈ 24.4 µM) | 33.3% | 20% | 0% | 33.3% | 15.5% | 4.5% | 24.4% | 8.9% | 0% | 13.3% | 2.2% | 2.2% | 28.9% | 11.8% | 8.9% | 26.7% | 8.9% | 4.4% | concentration sufficient to eliminate V. vulnificus (V. vulnificus [4]): 250 µg/mL; concentration that increased NPN fluorescence (V. vulnificus [5]): 60 µg/mL; MBC (V. vulnificus [6]): 62.5 µg/mL (≈ 24.4 µM); survival rate (V. vulnificus [7]; [26]): 0%; survival rate (V. vulnificus [7]; [27]): 0%; survival rate (V. vulnificus [7]; [28]): 73.3%; survival rate (V. vulnificus [7]; [29]): 95.3% |
| CC[C@H](C)[C@H](NC(=O)[C@H](C)NC(=O)[C@H](CCCCN)NC(=O)CNC(=O)[C@H](C)NC(=O)[C@H](CO)NC(=O)[C@H](Cc1ccccc1)NC(=O)[C@H](CC(C)C)NC(=O)CNC(=O)CNC(=O)[C@@H](NC(=O)[C@@H](NC(=O)[C@H](Cc1c[nH]cn1)NC(=O)[C@H](Cc1c[nH]cn1)NC(=O)[C@@H](NC(=O)[C@@H](N)Cc1ccccc1)[C@@H](C)CC)[C@@H](C)CC)[C@@H](C)CC)C(=O)N[C@@H](Cc1c[nH]cn1)C(=O)N[C@@H](CCCNC(=N)N)C(=O)N[C@@H](CC(C)C)C(=O)N[C@H](C(=O)N[C@@H](CCCNC(=N)N)C(=O)N[C@@H](CCCNC(=N)N)C(=O)N[C@@H](CCCNC(=N)N)C(=O)N[C@@H](CCCNC(=N)N)C(=O)N[C@@H](CCCNC(=N)N)C(=O)O)[C@@H](C)CC [TP4, tilapia piscidin 4] (H-FIHHIIGGLFSAGKAIHRLIRRRRR-OH) | Neither the antibiotics nor TP3 and TP4 showed any antimicrobial activity | 7.8 µg/mL (≈ 2.62 µM) | 48.9% | 22.2% | 4% | 40% | 20% | 0% | 2.2% | 4.4% | 6.7% | 37.8% | 4.4% | 0% | 31.1% | 20% | 2.2% | 11.1% | 4.4% | 4.4% | MIC (V. vulnificus [1]; pH 7): 7.8 µg/mL (≈ 2.62 µM); concentration sufficient to eliminate V. vulnificus (V. vulnificus [4]): 31.2 µg/mL; concentration that increased NPN fluorescence (V. vulnificus [5]): 8 µg/mL; MBC (V. vulnificus [6]): 7.8 µg/mL (≈ 2.62 µM); survival rate (V. vulnificus [7]; [26]): 73.3%; survival rate (V. vulnificus [7]; [27]): 75%; survival rate (V. vulnificus [7]; [28]): 86%; survival rate (V. vulnificus [7]; [29]): 88.9% |
